{
  "source": "ChEMBL document CHEMBL1144260",
  "about": "“Hybridization dependent cleavage of internally modified disulfide-peptide nucleic acids” (Bioorg Med Chem Lett, 2005)",
  "type_in_all_cases": "functional",
  "key": {"[1]": {"tested_on": "Nucleic Acid", "assay": "Percentage of cleavage in single stranded peptide nucleic acid was measured after treating with compound for 2 min; selectivity factor=1.5; PNA:DNA=5a:6"}, "[2]": {"tested_on": "Nucleic Acid", "assay": "Percentage of cleavage in single stranded peptide nucleic acid (PNA) DNA duplex was measured after treating with compound for 2 min; selectivity factor=1.5; PNA:DNA=5a:6"}, "[3]": {"tested_on": "Nucleic Acid", "assay": "Percentage of cleavage in single stranded peptide nucleic acid was measured after treating with compound for 2 min; selectivity factor>1; PNA:DNA=5a:6"}, "[4]": {"tested_on": "Nucleic Acid", "assay": "Percentage of cleavage in single stranded peptide nucleic acid was measured after treating with compound for 2 min; selectivity factor>/=1; PNA:DNA=5a:6b"}, "[5]": {"tested_on": "Nucleic Acid", "assay": "Percentage of cleavage in single stranded peptide nucleic acid was measured after treating with compound for 20 min; selectivity factor=22.2; PNA:DNA=5c:8b"}, "[6]": {"tested_on": "Nucleic Acid", "assay": "Percentage of cleavage in single stranded peptide nucleic acid was measured after treating with compound for 20 min; selectivity factor=25.7; PNA:DNA=5c:8a"}, "[7]": {"tested_on": "Nucleic Acid", "assay": "Percentage of cleavage in single stranded peptide nucleic acid (PNA) DNA duplex was measured after treating with compound for 2 min; selectivity factor>1; PNA:DNA= 5a:6"}, "[8]": {"tested_on": "Nucleic Acid", "assay": "Percentage of cleavage in single stranded peptide nucleic acid (PNA) DNA duplex was measured after treating with compound for 2 min; selectivity factor>/=1; PNA:DNA=5a:6b"}, "[9]": {"tested_on": "Nucleic Acid", "assay": "Percentage of cleavage in single stranded peptide nucleic acid (PNA) DNA duplex was measured after treating with compound for 20 min; selectivity factor=17.3; PNA:DNA=5b:7"}, "[10]": {"tested_on": "Nucleic Acid", "assay": "Percentage of cleavage in single stranded peptide nucleic acid (PNA) DNA duplex was measured after treating with compound for 20 min; selectivity factor=2.9; PNA:DNA=5b:7b"}, "[11]": {"tested_on": "Nucleic Acid", "assay": "Percentage of cleavage in single stranded peptide nucleic acid (PNA) DNA duplex was measured after treating with compound for 20 min; selectivity factor=57.1; PNA:DNA=5c:8"}, "[12]": {"tested_on": "Nucleic Acid", "assay": "Percentage of cleavage in single stranded peptide nucleic acid (PNA) DNA duplex was measured after treating with compound for 20 min; selectivity factor=7.4; PNA:DNA=5b:7a"}, "[13]": {"tested_on": "Nucleic Acid", "assay": "Percentage of cleavage in single stranded peptide nucleic acid (PNA) DNA duplex was measured after treating with compound for 20 min; selectivity factor=22.2; PNA:DNA=5c:8b"}, "[14]": {"tested_on": "Nucleic Acid", "assay": "Percentage of cleavage in single stranded peptide nucleic acid (PNA) DNA duplex was measured after treating with compound for 20 min; selectivity factor=25.7; PNA:DNA=5c:8a"}, "[15]": {"tested_on": "Nucleic Acid", "assay": "Percentage of cleavage in single stranded peptide nucleic acid was measured after treating with compound for 20 min; selectivity factor=17.3; PNA:DNA=5b:7"}, "[16]": {"tested_on": "Nucleic Acid", "assay": "Percentage of cleavage in single stranded peptide nucleic acid was measured after treating with compound for 20 min; selectivity factor=2.9; PNA:DNA=5b:7b"}, "[17]": {"tested_on": "Nucleic Acid", "assay": "Percentage of cleavage in single stranded peptide nucleic acid was measured after treating with compound for 20 min; selectivity factor=57.1; PNA:DNA=5c:8"}, "[18]": {"tested_on": "Nucleic Acid", "assay": "Percentage of cleavage in single stranded peptide nucleic acid was measured after treating with compound for 20 min; selectivity factor=7.4; PNA:DNA=5b:7a"}, "[19]": {"tested_on": "Nucleic Acid", "assay": "Percentage of cleavage in single stranded peptide nucleic acid was measured after treating with compound for 30 min; selectivity factor=1.6; PNA:DNA=5a:6"}, "[20]": {"tested_on": "Nucleic Acid", "assay": "Percentage of cleavage in single stranded peptide nucleic acid (PNA) DNA duplex was measured after treating with compound for 30 min; selectivity factor=1.6; PNA:DNA=5a:6"}, "[21]": {"tested_on": "Nucleic Acid", "assay": "Percentage of cleavage in single stranded peptide nucleic acid was measured after treating with compound for 10 min; selectivity factor=0.6; PNA:DNA=5a:6"}, "[22]": {"tested_on": "Nucleic Acid", "assay": "Percentage of cleavage in single stranded peptide nucleic acid (PNA) DNA duplex was measured after treating with compound for 10 min; selectivity factor=0.6; PNA:DNA=5a:6"}, "[23]": {"tested_on": "Nucleic Acid", "assay": "Percentage of cleavage in single stranded peptide nucleic acid was measured after treating with compound for 30 min; selectivity factor=1; PNA:DNA=5a:6"}, "[24]": {"tested_on": "Nucleic Acid", "assay": "Percentage of cleavage in single stranded peptide nucleic acid (PNA) DNA duplex was measured after treating with compound for 30 min; selectivity factor=1; PNA:DNA=5a:6"}, "[25]": {"tested_on": "Nucleic Acid", "assay": "Percentage of cleavage in single stranded peptide nucleic acid was measured after treating with compound for 300 min; selectivity factor=10.1; PNA:DNA=5b:7"}, "[26]": {"tested_on": "Nucleic Acid", "assay": "Percentage of cleavage in single stranded peptide nucleic acid was measured after treating with compound for 300 min; selectivity factor=2.8; PNA:DNA=5c:8a"}, "[27]": {"tested_on": "Nucleic Acid", "assay": "Percentage of cleavage in single stranded peptide nucleic acid was measured after treating with compound for 300 min; selectivity factor=23.8; PNA:DNA=5a:6"}, "[28]": {"tested_on": "Nucleic Acid", "assay": "Percentage of cleavage in single stranded peptide nucleic acid (PNA)-DNA duplex was measured after treating with compound for 300 min; selectivity factor=10.1; PNA:DNA=5b:7"}, "[29]": {"tested_on": "Nucleic Acid", "assay": "Percentage of cleavage in single stranded peptide nucleic acid (PNA) DNA duplex was measured after treating with compound for 300 min; selectivity factor=2.8; PNA:DNA=5c:8a"}, "[30]": {"tested_on": "Nucleic Acid", "assay": "Percentage of cleavage in single stranded peptide nucleic acid (PNA) DNA duplex was measured after treating with compound for 300 min; selectivity factor=23.8; PNA:DNA=5a:6"}, "[31]": {"tested_on": "Nucleic Acid", "assay": "Percentage of cleavage in single stranded peptide nucleic acid was measured after treating with compound for 300 min; selectivity factor=4.6; PNA:DNA=5a:6 (with NaCl 0.5 M)"}, "[32]": {"tested_on": "Nucleic Acid", "assay": "Percentage of cleavage in single stranded peptide nucleic acid (PNA) DNA duplex was measured after treating with compound for 300 min; selectivity factor=4.6; PNA:DNA=5a:6 (with NaCl 0.5 M)"}, "[33]": {"tested_on": "Nucleic Acid", "assay": "Percentage of cleavage in single stranded peptide nucleic acid was measured after treating with compound for 30 min; selectivity factor=0.7; PNA:DNA=5a:6"}, "[34]": {"tested_on": "Nucleic Acid", "assay": "Percentage of cleavage in single stranded peptide nucleic acid (PNA) DNA duplex was measured after treating with compound for 30 min; selectivity factor=0.7; PNA:DNA=5a:6"}, "[35]": {"tested_on": "Nucleic Acid", "assay": "Percentage of cleavage in single stranded peptide nucleic acid was measured after treating with compound for 0.5 min; selectivity factor=0.9; PNA:DNA=5a:6"}, "[36]": {"tested_on": "Nucleic Acid", "assay": "Percentage of cleavage in single stranded peptide nucleic acid (PNA) DNA duplex was measured after treating with compound for 0.5 min; selectivity factor=0.9; PNA:DNA=5a:6"}, "[37]": {"tested_on": "Nucleic Acid", "assay": "Percentage of cleavage in single stranded peptide nucleic acid (PNA) DNA duplex was measured after treating with compound for 30 min; selectivity factor=10.2; PNA:DNA=5a:6"}, "[38]": {"tested_on": "Nucleic Acid", "assay": "Percentage of cleavage in single stranded peptide nucleic acid was measured after treating with compound for 30 min; selectivity factor=10.2; PNA:DNA=5a:6"}},
  "data": [
    {"smiles": "NCCS", "values": [
      {"measurement": "Cleavage", "setting": "[1]", "value": 86.8, "unit": "%"},
      {"measurement": "Cleavage", "setting": "[2]", "value": 56.1, "unit": "%"}
    ]},
    {"smiles": "O=C(O)CCP(CCC(=O)O)CCC(=O)O", "values": [
      {"measurement": "Cleavage", "setting": "[3]", "value": 100, "unit": "%"},
      {"measurement": "Cleavage", "setting": "[4]", "value": 100, "unit": "%"},
      {"measurement": "Cleavage", "setting": "[5]", "value": 97.6, "unit": "%"},
      {"measurement": "Cleavage", "setting": "[6]", "value": 97.6, "unit": "%"},
      {"measurement": "Cleavage", "setting": "[7]", "value": 70.7, "unit": "%"},
      {"measurement": "Cleavage", "setting": "[8]", "value": 98.6, "unit": "%"},
      {"measurement": "Cleavage", "setting": "[9]", "value": 1.8, "unit": "%"},
      {"measurement": "Cleavage", "setting": "[10]", "value": 10.8, "unit": "%"},
      {"measurement": "Cleavage", "setting": "[11]", "value": 1.7, "unit": "%"},
      {"measurement": "Cleavage", "setting": "[12]", "value": 4.2, "unit": "%"},
      {"measurement": "Cleavage", "setting": "[13]", "value": 4.4, "unit": "%"},
      {"measurement": "Cleavage", "setting": "[14]", "value": 3.8, "unit": "%"},
      {"measurement": "Cleavage", "setting": "[15]", "value": 31.2, "unit": "%"},
      {"measurement": "Cleavage", "setting": "[16]", "value": 31.2, "unit": "%"},
      {"measurement": "Cleavage", "setting": "[17]", "value": 97.6, "unit": "%"},
      {"measurement": "Cleavage", "setting": "[18]", "value": 31.2, "unit": "%"}
    ]},
    {"smiles": "O=C(O)c1ccccc1P(c1ccccc1)c1ccccc1", "values": [
      {"measurement": "Cleavage", "setting": "[19]", "value": 69.1, "unit": "%"},
      {"measurement": "Cleavage", "setting": "[20]", "value": 43.7, "unit": "%"}
    ]},
    {"smiles": "NC(CS)C(=O)O", "note": "(stereo not drawn)", "values": [
      {"measurement": "Cleavage", "setting": "[21]", "value": 16.2, "unit": "%"},
      {"measurement": "Cleavage", "setting": "[22]", "value": 28.4, "unit": "%"}
    ]},
    {"smiles": "O=C(O)c1ccc(P(c2ccccc2)c2ccccc2)cc1", "values": [
      {"measurement": "Cleavage", "setting": "[23]", "value": 92.9, "unit": "%"},
      {"measurement": "Cleavage", "setting": "[24]", "value": 88.6, "unit": "%"}
    ]},
    {"smiles": "O=S(=O)(O)c1ccc(P(c2ccc(S(=O)(=O)O)cc2)c2ccc(S(=O)(=O)O)cc2)cc1", "values": [
      {"measurement": "Cleavage", "setting": "[25]", "value": 91.1, "unit": "%"},
      {"measurement": "Cleavage", "setting": "[26]", "value": 95.2, "unit": "%"},
      {"measurement": "Cleavage", "setting": "[27]", "value": 88.1, "unit": "%"},
      {"measurement": "Cleavage", "setting": "[28]", "value": 9, "unit": "%"},
      {"measurement": "Cleavage", "setting": "[29]", "value": 34.6, "unit": "%"},
      {"measurement": "Cleavage", "setting": "[30]", "value": 3.7, "unit": "%"},
      {"measurement": "Cleavage", "setting": "[31]", "value": 97.6, "unit": "%"},
      {"measurement": "Cleavage", "setting": "[32]", "value": 21, "unit": "%"}
    ]},
    {"smiles": "O=C(O)CCS", "values": [
      {"measurement": "Cleavage", "setting": "[33]", "value": 52.3, "unit": "%"},
      {"measurement": "Cleavage", "setting": "[34]", "value": 78.9, "unit": "%"}
    ]},
    {"smiles": "CN(C)c1ccc(P(c2ccccc2)c2ccccc2)cc1", "values": [
      {"measurement": "Cleavage", "setting": "[35]", "value": 19.5, "unit": "%"},
      {"measurement": "Cleavage", "setting": "[36]", "value": 23, "unit": "%"}
    ]},
    {"smiles": "OCC(S)C(S)CO", "note": "(stereo not drawn)", "values": [
      {"measurement": "Cleavage", "setting": "[37]", "value": 7.6, "unit": "%"},
      {"measurement": "Cleavage", "setting": "[38]", "value": 77.2, "unit": "%"}
    ]}
  ]
}
